The text below walks through data of patent US6677435B2, “Prodrug activation using catalytic antibodies” (The Scripps Research Institute, priority 1999, dated 2004).

What is called IC50 is the point on the concentration scale where inhibition reaches its midpoint.

The subject of assay [1] is antibody 38C2. Kind of assay: Kinetic analysis of antibody 38C2-catalyzed prodrug activation (RP-HPLC). Type of assay: biochemical, mouse. The method, then: All antibody reactions were carried out in PBS (pH 7.4) at 37° C. in microfuge tubes. […] Kinetic data were derived from Lineweaver-Burk plots. […] Topoisomerase I and II inhibitor doxorubicin was chosen as a model compound for this prodrug activation concept because its structure activity relationship is well characterized and it has been used previously in ADEPT systems (Niculescu-Duvaz, I. & Springer, C. J. (1997) Adv. Drug Delivery Rev. 26, 151-172). Doxorubicin is a drug approved for cancer therapy that suffers from misdirected toxicity. […] The tertiary aldol was chosen as the first reaction since no known natural enzyme catalyzes this particular type of retro-aldol reaction. […] Typically 38C2 is highly enantioselective, however, under the conditions studied, the reaction proceeded to completion indicative of loss of enantioselectivity and complete activation of the prodrug. According to a pharmacokinetic analysis of ADEPT systems, low kcat values combined with high Km values are expected to increase the tumor to blood ratio of the free drug, leading to a reduction in peripheral toxicity (Yuan, J., Baxter, L. T. & Jain, R. K. (1991). Cancer Res. 51, 3119-3130). […] To this end, both the masking linker and catalytic antibody are being optimized.

Assay [2] relates to LIM1215 human colon carcinoma cells. Kind of assay: Cell growth inhibition assay (lactate dehydrogenase colour reaction), LIM1215. Type of assay: cell-based. As to conditions: for IC50: Homo sapiens, LIM1215.
Method: Stock solutions of 5 mM doxorubicin and prodoxorubicin in DMF, respectively, were stored at 4° C. For cell growth inhibition assays, 250-μM dilutions of doxorubicin and prodoxorubicin in PBS (pH 7.4) were freshly prepared from the 5 mM stock solutions and further diluted in cell culture medium to yield 10 nM to 25 μM solutions. […] Stock solutions of 1 mM camptothecin and procamptothecin in DMF, respectively, were stored at 4° C. For cell growth inhibition assays, 100-μM dilutions of camptothecin and procamptothecin in PBS (pH 7.4) were freshly prepared from the 1 mM stock solutions and further diluted in cell culture medium to yield 10 nM to 1 μM solutions. Cells grown in culture flasks were trypsinized, washed with PBS, resuspended in cell culture medium, and reduced to a single cell suspension by passing through a 18 G needle. After counting, the cells were plated at a density of 5×10^3 (HT29) or 1×10^4 (LIM1215, LNCap) cells/well in 96-well tissue culture plates and maintained in culture as described above. Drugs were diluted to a final concentration range of 10 nM to 25 μM in 100 μl 10% fetal bovine serum in RPMI 1640 and added to the cells 24 hours after plating. […] After drug addition, the cells were maintained at 37° C. in 5% CO2for 3 to 5 days (72 to 120 hours). Prior to the quantitative cell growth inhibition assay, the cell density was qualitatively analyzed by microscopy. […] The cells were then washed with 150 μl PBS (pH 7.5) and incubated with 100 μl of 9% (v/v) Triton-X 100 (Sigma, St. Louis, Mo.) for 45 minutes at 37° C. The supernatant was then transferred to a 96-well V-shaped plate and centrifuged to remove cell debris. […] For quantification, 50 μl aliquots were transferred to another 96-well plate and the color was read at 490 nm in an ELISA plate reader. The absorbance data were converted to percent cell density with the untreated controls being 100% and the background of the color reaction being 0%.
The subject of assay [3] is HT29 human colon carcinoma cells. Kind of assay: Cell growth inhibition assay (lactate dehydrogenase colour reaction), HT29. Type of assay: cell-based. The text has this: (§1) Human colon carcinoma cell lines HT29 and LIM1215 were kindly provided by Dr. Lloyd J. Old from The Ludwig Institute for Cancer Research in New York. Human prostate cancer cell line LNCap was purchased from American Type Culture Collection (Manassas, Va.). All cell lines were maintained in RPMI 1640 medium (Hyclone, Logan, Utah) supplemented with 10% fetal bovine serum (Life Technologies, Gaithersburg, Md.) and antibiotic-antimycotic reagents (Life Technologies) containing penicillin, streptomycin, and amphotericin B. The cell lines were cultivated in culture flasks at 37° C. in a humidifying incubator in an atmosphere of 5% CO2.
(§2) Stock solutions of 5 mM doxorubicin and prodoxorubicin in DMF, respectively, were stored at 4° C. For cell growth inhibition assays, 250-μM dilutions of doxorubicin and prodoxorubicin in PBS (pH 7.4) were freshly prepared from the 5 mM stock solutions and further diluted in cell culture medium to yield 10 nM to 25 μM solutions. Methyl vinyl ketone was purchased from Aldrich (Milwaukee, Wis.). Stock solutions of 1 mM camptothecin and procamptothecin in DMF, respectively, were stored at 4° C. […] Prior to the quantitative cell growth inhibition assay, the cell density was qualitatively analyzed by microscopy. This visual evaluation always matched the result of the quantitative analysis. […] For quantification, 50 μl aliquots were transferred to another 96-well plate and the color was read at 490 nm in an ELISA plate reader. The absorbance data were converted to percent cell density with the untreated controls being 100% and the background of the color reaction being 0%.
(§3) The antiproliferative effects of drug and prodrug were monitored by quantifying the cell growth in the presence of a range of concentrations of doxorubicin and prodoxorubicin, respectively. Three different human cancer cell lines were evaluated, human colon carcinoma cell lines HT29 and LIM1215 and human prostate cancer cell line LNCap. […]

In assay [4] the test system is human prostate cancer cell line LNCap. Kind of assay: Cell growth inhibition assay (lactate dehydrogenase colour reaction), LNCap. Type of assay: cell-based.
Source text: as §1, §2, §3

The mark [5] stands for this setting: 72 h after drug addition, 50% decrease in cell density vs untreated control.
Where [6] appears, read: HT-29, 72 h after drug addition, 50% decrease in cell density vs untreated control.

Consider `CC(=O)CC(C)=O` [2,4-pentanedione], for which the “inhibition of 38C2 catalysis of prodoxorubicin cleavage” value in assay [1] was “completely inhibited”.

`CC[C@@]1(O)C(=O)OCc2c1cc1n(c2=O)Cc2cc3ccccc3nc2-1` [camptothecin]: the IC50 in assay [2] (setting [5]) fell in the range of 0.1 to 0.25 µM; in assay [3] (setting [6]), 0.1 to 0.25 µM; in assay [4] (setting [5]), 0.01 to 0.025 µM.

Regarding `COc1cccc2c1C(=O)c1c(O)c3c(c(O)c1C2=O)C[C@@](O)(C(=O)CO)C[C@@H]3O[C@H]1C[C@H](N)[C@H](O)[C@H](C)O1` [doxorubicin], the IC50 in assay [2] (setting [5]) was found to be 0.4 µM; in assay [2] (120 h after drug addition) it was 0.4 µM; in assay [3] (setting [6]) it was 3 µM; in assay [3] (HT-29, 120 h after drug addition) it was 2.5 µM; in assay [4] (setting [5]) it was 0.4 µM; in assay [4] (120 h after drug addition) it was 0.2 µM.

Take `C=CC(C)=O` [methyl vinyl ketone]: the “cell growth inhibition when applied alone” value in assay [2] (LIM1215 cells, 120 h, without combination partner) was “no inhibition of cell growth”.
